pIC50: −log10 of the molar value.
Experiments:
Assay in all cases: cells
AN3-CA = assay type: functional, cell-based; conditions: Homo sapiens
Description: SANGER: Inhibition of human AN3-CA cell growth in a cell viability assay.

LoVo = assay type: functional, cell-based; conditions: Homo sapiens
Description: SANGER: Inhibition of human LoVo cell growth in a cell viability assay.

SJSA-1 = assay type: functional, cell-based, Homo sapiens; conditions: Homo sapiens, SJSA-1
Description: SANGER: Inhibition of human SJSA-1 cell growth in a cell viability assay.

BB49-HNC = assay type: functional, cell-based, Homo sapiens; conditions: Homo sapiens, BB49-HNC
Description: SANGER: Inhibition of human BB49-HNC cell growth in a cell viability assay.

MN-60 = assay type: functional, cell-based; conditions: Homo sapiens
Description: SANGER: Inhibition of human MN-60 cell growth in a cell viability assay.

SW-620 = assay type: functional, cell-based, Homo sapiens; conditions: Homo sapiens, SW-620
Description: SANGER: Inhibition of human SW620 cell growth in a cell viability assay.

SCH = assay type: functional, cell-based, Homo sapiens; conditions: Homo sapiens, SCH
Description: SANGER: Inhibition of human SCH cell growth in a cell viability assay.

GB-1 = assay type: functional, cell-based, Homo sapiens; conditions: Homo sapiens, GB-1
Description: SANGER: Inhibition of human GB-1 cell growth in a cell viability assay.

NB10 = assay type: functional, cell-based, Homo sapiens; conditions: Homo sapiens, NB10
Description: SANGER: Inhibition of human NB10 cell growth in a cell viability assay.

A2780 = assay type: functional, cell-based, Homo sapiens; conditions: Homo sapiens, A2780
Description: SANGER: Inhibition of human A2780 cell growth in a cell viability assay.

SCC-25 = assay type: functional, cell-based, Homo sapiens; conditions: Homo sapiens, SCC-25
Description: SANGER: Inhibition of human SCC-25 cell growth in a cell viability assay.

OVCAR-3 = assay type: functional, cell-based, Homo sapiens; conditions: Homo sapiens, OVCAR-3
Description: SANGER: Inhibition of human OVCAR-3 cell growth in a cell viability assay.

MS-1 = assay type: functional, cell-based; conditions: Homo sapiens
Description: SANGER: Inhibition of human MS-1 cell growth in a cell viability assay.

OCI-AML2 = assay type: functional, cell-based; conditions: Homo sapiens
Description: SANGER: Inhibition of human OCI-AML2 cell growth in a cell viability assay.

NCI-H1650 = assay type: functional, cell-based, Homo sapiens; conditions: Homo sapiens, NCI-H1650
Description: SANGER: Inhibition of human NCI-H1650 cell growth in a cell viability assay.

HMV-2 cell line = assay type: functional, cell-based, Homo sapiens; conditions: Homo sapiens, HMV-2
Description: SANGER: Inhibition of human HMV-II cell growth in a cell viability assay.

RT-112 = assay type: functional, cell-based, Homo sapiens; conditions: Homo sapiens, RT-112
Description: SANGER: Inhibition of human RT-112 cell growth in a cell viability assay.

Capan-2 = assay type: functional, cell-based, Homo sapiens; conditions: Homo sapiens, Capan-2
Description: SANGER: Inhibition of human Capan-2 cell growth in a cell viability assay.

CHL-1 = assay type: functional, cell-based, Homo sapiens; conditions: Homo sapiens, CHL-1
Description: SANGER: Inhibition of human CHL-1 cell growth in a cell viability assay.

TE-10 = assay type: functional, cell-based, Homo sapiens; conditions: Homo sapiens, TE-10
Description: SANGER: Inhibition of human TE-10 cell growth in a cell viability assay.

TYK-nu = assay type: functional, cell-based, Homo sapiens; conditions: Homo sapiens, TYK-nu
Description: SANGER: Inhibition of human TYK-nu cell growth in a cell viability assay.

HuP-T4 = assay type: functional, cell-based, Homo sapiens; conditions: Homo sapiens, HuP-T4
Description: SANGER: Inhibition of human HuP-T4 cell growth in a cell viability assay.

MEG-01 = assay type: functional, cell-based; conditions: Homo sapiens
Description: SANGER: Inhibition of human MEG-01 cell growth in a cell viability assay.

KYSE-520 cell line = assay type: functional, cell-based, Homo sapiens; conditions: Homo sapiens, KYSE-520
Description: SANGER: Inhibition of human KYSE-520 cell growth in a cell viability assay.

LOX IMVI = assay type: functional, cell-based; conditions: Homo sapiens
Description: SANGER: Inhibition of human LOXIMVI cell growth in a cell viability assay.

SK-LU-1 = assay type: functional, cell-based, Homo sapiens; conditions: Homo sapiens, SK-LU-1
Description: SANGER: Inhibition of human SK-LU-1 cell growth in a cell viability assay.

KYSE-510 = assay type: functional, cell-based, Homo sapiens; conditions: Homo sapiens, KYSE-510
Description: SANGER: Inhibition of human KYSE-510 cell growth in a cell viability assay.

SNU-5 = assay type: functional, cell-based; conditions: Homo sapiens
Description: SANGER: Inhibition of human NCI-SNU-5 cell growth in a cell viability assay.

JVM-3 = assay type: functional, cell-based; conditions: Homo sapiens
Description: SANGER: Inhibition of human JVM-3 cell growth in a cell viability assay.

SF-126 = assay type: functional, cell-based, Homo sapiens; conditions: Homo sapiens, SF-126
Description: SANGER: Inhibition of human SF126 cell growth in a cell viability assay.

YAPC = assay type: functional, cell-based, Homo sapiens; conditions: Homo sapiens, YAPC
Description: SANGER: Inhibition of human YAPC cell growth in a cell viability assay.

NCI-H810 = assay type: functional, cell-based, Homo sapiens; conditions: Homo sapiens, NCI-H810
Description: SANGER: Inhibition of human NCI-H810 cell growth in a cell viability assay.

KYSE-70 cell line = assay type: functional, cell-based, Homo sapiens; conditions: Homo sapiens, KYSE-70
Description: SANGER: Inhibition of human KYSE-70 cell growth in a cell viability assay.

TGW = assay type: functional, cell-based; conditions: Homo sapiens
Description: SANGER: Inhibition of human TGW cell growth in a cell viability assay.

NCI-H1355 = assay type: functional, cell-based, Homo sapiens; conditions: Homo sapiens, NCI-H1355
Description: SANGER: Inhibition of human NCI-H1355 cell growth in a cell viability assay.

ES7 = assay type: functional, cell-based, Homo sapiens; conditions: Homo sapiens, ES7
Description: SANGER: Inhibition of human ES7 cell growth in a cell viability assay.

TGBC24TKB = assay type: functional, cell-based, Homo sapiens; conditions: Homo sapiens, TGBC24TKB
Description: SANGER: Inhibition of human TGBC24TKB cell growth in a cell viability assay.

FTC-133 = assay type: functional, cell-based, Homo sapiens; conditions: Homo sapiens, FTC-133
SK-MEL-24 = assay type: functional, cell-based; conditions: Homo sapiens
Description: SANGER: Inhibition of human SK-MEL-24 cell growth in a cell viability assay.

8505C = assay type: functional, cell-based, Homo sapiens; conditions: Homo sapiens, 8505C
Description: SANGER: Inhibition of human 8505C cell growth in a cell viability assay.

L-363 = assay type: functional, cell-based; conditions: Homo sapiens
Description: SANGER: Inhibition of human L-363 cell growth in a cell viability assay.

LC-2-ad = assay type: functional, cell-based, Homo sapiens; conditions: Homo sapiens, LC-2-ad
Description: SANGER: Inhibition of human LC-2-ad cell growth in a cell viability assay.

SNU-387 = assay type: functional, cell-based, Homo sapiens; conditions: Homo sapiens, SNU-387
Description: SANGER: Inhibition of human SNU-387 cell growth in a cell viability assay.

KNS-81-FD = assay type: functional, cell-based, Homo sapiens; conditions: Homo sapiens, KNS-81-FD
Description: SANGER: Inhibition of human KNS-81-FD cell growth in a cell viability assay.

HuTu80 = assay type: functional, cell-based, Homo sapiens, HUTU-80; conditions: Homo sapiens, HuTu80
Description: SANGER: Inhibition of human HUTU-80 cell growth in a cell viability assay.

NCI-H520 = assay type: functional, cell-based, Homo sapiens; conditions: Homo sapiens, NCI-H520
Description: SANGER: Inhibition of human NCI-H520 cell growth in a cell viability assay.

RKO = assay type: functional, cell-based, Homo sapiens; conditions: Homo sapiens, RKO
Description: SANGER: Inhibition of human RKO cell growth in a cell viability assay.

786-0 = assay type: functional, cell-based, Homo sapiens; conditions: Homo sapiens
Description: SANGER: Inhibition of human 786-0 cell growth in a cell viability assay.

HCC1954 = assay type: functional, cell-based, Homo sapiens; conditions: Homo sapiens, HCC1954
Description: SANGER: Inhibition of human HCC1954 cell growth in a cell viability assay.

HCE-T = assay type: functional, cell-based, Homo sapiens; conditions: Homo sapiens, HCE-T
Description: SANGER: Inhibition of human HCE-T cell growth in a cell viability assay.

ES5 = assay type: functional, cell-based, Homo sapiens; conditions: Homo sapiens, ES5
Description: SANGER: Inhibition of human ES5 cell growth in a cell viability assay.

## CN(c1ncccc1CNc1nc(Nc2ccc3c(c2)CC(=O)N3)ncc1C(F)(F)F)S(C)(=O)=O [PF-00562271]
AN3-CA
  pIC50: 5.91
LoVo
  pIC50: < 5.59
SJSA-1
  pIC50: < 5.59
BB49-HNC
  pIC50: < 5.59
MN-60
  pIC50: < 5.59
SW-620
  pIC50: < 5.59
SCH
  pIC50: < 5.59
GB-1
  pIC50: < 5.59
NB10
  pIC50: < 5.59
A2780
  pIC50: < 5.59
SCC-25
  pIC50: < 5.59
OVCAR-3
  pIC50: < 5.59
MS-1
  pIC50: < 5.59
OCI-AML2
  pIC50: < 5.59
NCI-H1650
  pIC50: < 5.59
HMV-2 cell line
  pIC50: < 5.59
RT-112
  pIC50: 6.01
Capan-2
  pIC50: < 5.59
CHL-1
  pIC50: < 5.59
TE-10
  pIC50: < 5.59
TYK-nu
  pIC50: < 5.59
HuP-T4
  pIC50: < 5.59
MEG-01
  pIC50: < 5.59
KYSE-520 cell line
  pIC50: < 5.59
LOX IMVI
  pIC50: < 5.59
SK-LU-1
  pIC50: < 5.59
KYSE-510
  pIC50: < 5.59
SNU-5
  pIC50: < 5.59
JVM-3
  pIC50: < 5.59
SF-126
  pIC50: < 5.59
YAPC
  pIC50: < 5.59
NCI-H810
  pIC50: 5.96
KYSE-70 cell line
  pIC50: < 5.59
TGW
  pIC50: < 5.59
NCI-H1355
  pIC50: < 5.59
ES7
  pIC50: < 5.59
TGBC24TKB
  pIC50: < 5.59
FTC-133
  pIC50: < 5.59
SK-MEL-24
  pIC50: < 5.59
8505C
  pIC50: < 5.59
L-363
  pIC50: < 5.59
LC-2-ad
  pIC50: 5.64
SNU-387
  pIC50: 5.60
KNS-81-FD
  pIC50: < 5.59
HuTu80
  pIC50: 5.84
NCI-H520
  pIC50: < 5.59
RKO
  pIC50: < 5.59
786-0
  pIC50: < 5.59
HCC1954
  pIC50: < 5.59
HCE-T
  pIC50: < 5.59
ES5
  pIC50: < 5.59

## CCC1=C[C@@H]2CN(C1)Cc1c([nH]c3ccccc13)[C@@](C(=O)OC)(c1cc3c(cc1OC)N(C)[C@H]1[C@@](O)(C(=O)OC)[C@H](OC(C)=O)[C@]4(CC)C=CCN5CC[C@]31[C@@H]54)C2 [VINORELBINE]
AN3-CA
  pIC50: 8.20
LoVo
  pIC50: 8.10
SJSA-1
  pIC50: 7.90
BB49-HNC
  pIC50: < 7.19
MN-60
  pIC50: < 7.19
SW-620
  pIC50: 8.07
SCH
  pIC50: < 7.19
GB-1
  pIC50: < 7.19
NB10
  pIC50: < 7.19
A2780
  pIC50: 8.20
SCC-25
  pIC50: 7.90
OVCAR-3
  pIC50: 8.21
MS-1
  pIC50: < 7.19
OCI-AML2
  pIC50: 7.99
NCI-H1650
  pIC50: 7.39
HMV-2 cell line
  pIC50: 8.32
RT-112
  pIC50: 8.47
Capan-2
  pIC50: 7.52
CHL-1
  pIC50: 8.34
TE-10
  pIC50: 8.44
TYK-nu
  pIC50: < 7.19
HuP-T4
  pIC50: 7.43
MEG-01
  pIC50: 7.68
KYSE-520 cell line
  pIC50: 7.75
LOX IMVI
  pIC50: < 7.19
SK-LU-1
  pIC50: 7.29
KYSE-510
  pIC50: 8.38
SNU-5
  pIC50: 7.34
JVM-3
  pIC50: < 7.19
SF-126
  pIC50: < 7.19
YAPC
  pIC50: < 7.19
NCI-H810
  pIC50: 8.41
KYSE-70 cell line
  pIC50: 7.78
TGW
  pIC50: < 7.19
NCI-H1355
  pIC50: 8.54
ES7
  pIC50: 8.41
TGBC24TKB
  pIC50: 7.70
FTC-133
  pIC50: < 7.19
SK-MEL-24
  pIC50: < 7.19
8505C
  pIC50: 8.35
L-363
  pIC50: 7.91
LC-2-ad
  pIC50: 8.30
SNU-387
  pIC50: 7.99
KNS-81-FD
  pIC50: < 7.19
HuTu80
  pIC50: 8.66
NCI-H520
  pIC50: 8.73
RKO
  pIC50: 8.82
786-0
  pIC50: 8.52
HCC1954
  pIC50: 8.00
HCE-T
  pIC50: < 7.19
ES5
  pIC50: < 7.19

Source: ChEMBL document CHEMBL1201861, “Genomics of Drug Sensitity in Cancer screening data, Wellcome Trust Sanger Institute”
